Where a name gives a salt, the structure may show the parent alone.

In turn, `N#Cc1ccc(Oc2ccc3c(c2)CCN(CCN2CCCC2)C3=O)nc1` (as salt: hydrochloride) [Example 47, 6-{[1-oxo-2-(2-pyrrolidin-1-ylethyl)-1,2,3,4-tetrahydroisoquinolin-6-yl]oxy}nicotinonitrile] gave a melting point of 189 to 190 °C.

The molecule `C[C@@H]1CCCN1CCN1CCc2cc(Oc3ccc(C#N)cn3)ccc2C1=O` (as salt: hydrochloride) [Example 48, 6-[(2-{2-[(2R)-2-methylpyrrolidin-1-yl]ethyl}-1-oxo-1,2,3,4-tetrahydroisoquinolin-6-yl)oxy]nicotinonitrile] showed a melting point of 184 to 185 °C.

The molecule `C[C@@H]1CCCN1CCN1CCc2cc(Oc3ccc(C#N)cc3)ccc2C1=O` (as salt: hydrochloride) [Example 49, 4-[(2-{2-[(2R)-2-methylpyrrolidin-1-yl]ethyl}-1-oxo-1,2,3,4-tetrahydroisoquinolin-6-yl)oxy]benzonitrile] displayed a melting point of 254 to 255 °C.

`N#Cc1ccc(Oc2ccc3c(c2)CCN(CCN2CCCC2)C3=O)cc1` (as salt: hydrochloride) [Example 50, 4-{[1-oxo-2-(2-pyrrolidin-1-ylethyl)-1,2,3,4-tetrahydroisoquinolin-6-yl]oxy}benzonitrile]: the melting point fell in the range of 146 to 147 °C.

For the molecule `C[C@@H]1CCCN1CCN1CCc2cc(Oc3ccc(C#N)nc3)ccc2C1=O` (as salt: hydrochloride) [Example 51, 5-[(2-{2-[(2R)-2-methylpyrrolidin-1-yl]ethyl}-1-oxo-1,2,3,4-tetrahydroisoquinolin-6-yl)oxy]pyridine-2-carbonitrile], the melting point was 218 to 220 °C.

Molecule `N#Cc1ccc(Oc2ccc3c(c2)CCN(CCN2CCCC2)C3=O)cn1` (as salt: hydrochloride) [Example 52, 5-{[1-oxo-2-(2-pyrrolidin-1-ylethyl)-1,2,3,4-tetrahydroisoquinolin-6-yl]oxy}pyridine-2-carbonitrile] yielded a melting point of 203 to 205 °C.

For the molecule `O=C(c1ccc(-c2ccc3c(c2)CCN(CCN2CCCC2)C3=O)cc1)N1CCCC1` (as salt: hydrochloride) [Example 54, 6-[4-(pyrrolidin-1-ylcarbonyl)phenyl]-2-(2-pyrrolidin-1-ylethyl)-3,4-dihydroisoquinolin-1(2H)-one hydrochloride], the melting point lay within 245 to 248 °C.

Turning to `O=C(NC1CC1)c1ccc(-c2ccc3c(c2)CCN(CCN2CCCC2)C3=O)cc1` (as salt: hydrochloride) [Example 57, N-cyclopropyl-4-[1-oxo-2-(2-pyrrolidin-1-ylethyl)-1,2,3,4-tetrahydroisoquinolin-6-yl]benzamide], the melting point is 222 to 224 °C.

`CNC(=O)c1ccc(-c2ccc3c(c2)CCN(CCN2CCCC2)C3=O)cc1` (as salt: hydrochloride) [Example 59, N-methyl-4-[1-oxo-2-(2-pyrrolidin-1-ylethyl)-1,2,3,4-tetrahydroisoquinolin-6-yl]benzamide] returned a melting point of 235 to 236 °C.

For the molecule `O=C(NCC1CC1)c1ccc(-c2ccc3c(c2)CCN(CCN2CCCC2)C3=O)cc1` (as salt: hydrochloride) [Example 60, N-(cyclopropylmethyl)-4-[1-oxo-2-(2-pyrrolidin-1-ylethyl)-1,2,3,4-tetrahydroiso-quinolin-6-yl]benzamide], the melting point fell in the range of 216 to 218 °C.

Consider `CC(C)NC(=O)c1ccc(-c2ccc3c(c2)CCN(CCN2CCCC2)C3=O)cc1` (as salt: hydrochloride) [Example 61, N-isopropyl-4-[1-oxo-2-(2-pyrrolidin-1-ylethyl)-1,2,3,4-tetrahydroisoquinolin-6-yl]benzamide], for which the melting point was in the range of 257 to 259 °C.

Take `CCN(CC)C(=O)c1ccc(-c2ccc3c(c2)CCN(CCN2CCCC2)C3=O)cc1` (as salt: hydrochloride) [Example 62, N,N-diethyl-4-[1-oxo-2-(2-pyrrolidin-1-ylethyl)-1,2,3,4-tetrahydroisoquinolin-6-yl]benzamide]: the melting point is 177 to 178 °C.

In turn, `O=C(NC1CCC1)c1ccc(-c2ccc3c(c2)CCN(CCN2CCCC2)C3=O)cc1` (as salt: hydrochloride) [Example 63, N-cyclobutyl-4-[1-oxo-2-(2-pyrrolidin-1-ylethyl)-1,2,3,4-tetrahydroisoquinolin-6-yl]benzamide] registered a melting point of 255 to 258 °C.

`O=C(c1ccc(-c2ccc3c(c2)CCN(CCN2CCCC2)C3=O)cc1)N1CCC1` (as salt: hydrochloride) [Example 64, 6-[4-(azetidin-1-ylcarbonyl)phenyl]-2-(2-pyrrolidin-1-ylethyl)-3,4-dihydroisoquinolin-1(2H)-one]: the melting point is 229 to 230 °C.

`CCN(CC)C(=O)c1ccc(-c2ccc3c(c2)CCN(CCN2CCC[C@H]2C)C3=O)cc1` (as salt: hydrochloride) [Example 65, N,N-diethyl-4-(2-{2-[(2R)-2-methylpyrrolidin-1-yl]ethyl}-1-oxo-1,2,3,4-tetrahydroisoquinolin-6-yl)benzamide] returned a melting point of 221 to 222 °C.

In the case of `C[C@@H]1CCCN1CCN1CCc2cc(-c3ccc(C(=O)N4CCCC4)cc3)ccc2C1=O` (as salt: hydrochloride) [Example 66, 2-{2-[(2R)-2-methylpyrrolidin-1-yl]ethyl}-6-[4-(pyrrolidin-1-ylcarbonyl)phenyl]-3,4-dihydroisoquinolin-1(2H)-one], the melting point lay in the range of 243 to 244 °C.

Take `NC(=O)c1ccc(-c2ccc3c(c2)CCN(CCN2CCCC2)C3=O)cc1` (as salt: hydrochloride) [Example 67, 4-[1-oxo-2-(2-pyrrolidin-1-ylethyl)-1,2,3,4-tetrahydroisoquinolin-6-yl]benzamide]: the melting point was in the range of 268 to 270 °C.

On to `O=C(NCCF)c1ccc(-c2ccc3c(c2)CCN(CCN2CCCC2)C3=O)cc1` (as salt: hydrochloride) [Example 68, N-(2-fluoroethyl)-4-[1-oxo-2-(2-pyrrolidin-1-ylethyl)-1,2,3,4-tetrahydroisoquinolin-6-yl]benzamide], for which the melting point lay in the range of 215 to 216 °C.

For `COCCNC(=O)c1ccc(-c2ccc3c(c2)CCN(CCN2CCCC2)C3=O)cc1` (as salt: hydrochloride) [Example 69, N-(2-methoxyethyl)-4-[1-oxo-2-(2-pyrrolidin-1-ylethyl)-1,2,3,4-tetrahydroisoquinolin-6-yl]benzamide], the melting point lay within 178 to 180 °C.

Take `CC(C)OCCNC(=O)c1ccc(-c2ccc3c(c2)CCN(CCN2CCCC2)C3=O)cc1` (as salt: hydrochloride) [Example 70, N-(2-isopropoxyethyl)-4-[1-oxo-2-(2-pyrrolidin-1-ylethyl)-1,2,3,4-tetrahydroisoquinolin-6-yl]benzamide]: the melting point fell in the range of 164 to 166 °C.

For `O=C(NCCOc1ccccc1)c1ccc(-c2ccc3c(c2)CCN(CCN2CCCC2)C3=O)cc1` (as salt: hydrochloride) [Example 71, 4-[1-oxo-2-(2-pyrrolidin-1-ylethyl)-1,2,3,4-tetrahydroisoquinolin-6-yl]-N-(2-phenoxyethyl)-benzamide], the melting point was 123 to 130 °C.

`CCOCCNC(=O)c1ccc(-c2ccc3c(c2)CCN(CCN2CCCC2)C3=O)cc1` (as salt: hydrochloride) [Example 72, N-(2-ethoxyethyl)-4-[1-oxo-2-(2-pyrrolidin-1-ylethyl)-1,2,3,4-tetrahydroisoquinolin-6-yl]benzamide] returned a melting point of 193 to 195 °C.

What is called melting point is the temperature of the solid-liquid transition.
